Measured values published in the supplement of paper PMC10307832.

Assays:
Assay in all cases: relative viability (nuclei count vs DMSO), 5 days (fraction); higher = more cells survive
[1] = compound: CS(=O)(=O)c1ccc(-c2cnc(N)c(C(=O)Nc3ccccc3)n2)cc1 [VE-821] + O=C(CCCCCCC(=O)Nc1ccccc1)NO [Vorinostat] (partner 1 µM)
In short: (§1)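 One day after seeding in 1536-well plates, lung cancer cell lines were dosed by pin tool. Dosing was either single-drug or a fixed anchor-drug dose plus five library-drug doses (not always all listed) in √10 steps. After 5 days, nuclei were stained in one fix-and-stain step and counted on 4× images, and relative viability is the nuclei count of treated wells over that of vehicle wells, given as the median of duplicate plates.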

[2] = compound: N#CC[C@H](C1CCCC1)n1cc(-c2ncnc3[nH]ccc23)cn1 [Ruxolitinib] + Cc1nc(NC(=O)N2CCC[C@H]2C(N)=O)sc1-c1ccnc(C(C)(C)C(F)(F)F)c1 [Alpelisib] (partner 2 µM)
In short: as §1

[3] = compound: CS(=O)(=O)c1ccc(C(=O)Nc2ccc(Cl)c(-c3ccccn3)c2)c(Cl)c1 [Vismodegib] + COc1cccc2cc(-c3nc([C@H]4CC[C@H](C(=O)O)CC4)n4ncnc(N)c34)[nH]c12 [OSI-027] (partner 0.5 µM)
In short: as §1

[4] = compound: CS(=O)(=O)c1ccc(-c2cnc(N)c(C(=O)Nc3ccccc3)n2)cc1 [VE-821] + COc1cccc2cc(-c3nc([C@H]4CC[C@H](C(=O)O)CC4)n4ncnc(N)c34)[nH]c12 [OSI-027] (partner 0.5 µM)
In short: as §1

Cell Line	relative viability ([1]; first compound 0.08 µM)	relative viability ([1]; first compound 0.253 µM)	relative viability ([1]; first compound 0.8 µM)	relative viability ([1]; first compound 2.53 µM)	relative viability ([1]; first compound 8 µM)	relative viability ([2]; first compound 0.08 µM)	relative viability ([2]; first compound 0.253 µM)	relative viability ([2]; first compound 0.8 µM)	relative viability ([2]; first compound 2.53 µM)	relative viability ([2]; first compound 8 µM)	relative viability ([3]; first compound 0.08 µM)	relative viability ([3]; first compound 0.253 µM)	relative viability ([3]; first compound 0.8 µM)	relative viability ([3]; first compound 2.53 µM)	relative viability ([3]; first compound 8 µM)	relative viability ([4]; first compound 0.08 µM)	relative viability ([4]; first compound 0.253 µM)	relative viability ([4]; first compound 0.8 µM)	relative viability ([4]; first compound 2.53 µM)	relative viability ([4]; first compound 8 µM)
SK-MES-1	1.18	1.02	0.857	1.08	0.358	0.984	0.878	0.986	0.722	0.795	0.729	0.576	0.598	0.59	0.577	0.665	0.558	0.53	0.533	0.233
HCC-827	0.728	0.779	0.856	0.837	0.722	–	0.679	0.72	0.794	0.887	0.759	0.708	0.726	0.767	0.789	0.845	0.865	0.886	0.838	0.683
NCI-H596	0.703	0.579	0.604	0.557	0.51	0.521	0.567	0.559	0.531	0.547	0.791	0.634	0.672	0.734	0.781	0.648	0.519	0.534	0.558	0.451
COR-L23	0.418	0.561	0.36	0.373	0.157	0.854	0.827	0.821	0.731	0.502	0.753	0.743	0.742	0.793	0.751	0.9	0.751	0.797	0.766	0.63
201T	0.991	0.947	0.992	1.01	0.752	1.11	1.11	1.27	1.39	1.33	0.834	0.741	0.733	0.731	0.747	0.815	0.672	0.688	0.747	0.381
NCI-H322M	0.903	0.831	0.899	0.818	0.499	0.901	0.844	0.873	0.802	1.01	0.677	0.522	0.486	0.525	0.537	0.533	0.519	0.577	0.482	0.286
LU99A	0.515	0.462	0.471	0.431	0.299	0.532	0.456	0.523	0.523	0.412	0.35	0.271	0.24	0.278	0.287	0.298	0.304	0.292	0.257	0.244
NCI-H2405	1.09	0.977	0.992	0.984	0.859	–	0.715	0.984	0.416	0.465	0.621	0.615	0.573	0.621	0.639	0.634	0.632	0.628	0.751	0.686
LK-2	0.335	0.253	0.416	0.408	0.397	–	0.992	1.27	0.971	1.43	0.264	0.187	0.181	0.182	0.226	0.194	0.203	0.245	0.221	0.176
HCC-366	0.426	0.269	0.28	0.121	0.0472	0.349	0.322	0.366	0.36	0.46	1.32	0.888	0.77	0.929	0.775	0.931	0.789	0.605	0.492	0.138
NCI-H441	0.833	0.765	0.951	0.921	0.435	0.665	0.52	0.71	0.553	0.565	0.932	0.693	0.638	0.518	0.601	0.718	0.641	0.644	0.72	0.583
COR-L 105	0.865	0.883	0.638	0.718	0.56	0.771	1.03	0.84	0.86	0.718	0.683	0.63	0.771	0.739	0.658	0.741	0.551	0.647	0.642	0.695
A-427	0.872	0.795	0.83	0.806	0.51	1.09	1.03	1.07	1.06	1.03	0.471	0.464	0.446	0.405	0.484	0.514	0.418	0.391	0.412	0.286
HCC-44	1.07	1.07	1.12	1.15	1.09	0.793	0.724	0.796	0.602	0.41	0.532	0.482	0.453	0.526	0.611	0.498	0.427	0.634	0.563	0.556
NCI-H2170	0.923	0.687	0.872	0.805	0.635	0.891	0.857	0.753	0.821	0.737	0.658	0.609	0.686	0.723	0.699	0.638	0.757	0.732	0.648	0.636
NCI-H1623	–	–	–	–	–	–	–	–	–	–	0.476	0.415	0.461	0.419	0.456	0.48	0.489	0.543	0.454	0.379
NCI-H2228	0.758	0.535	0.294	0.59	0.347	0.667	0.56	0.773	0.46	0.361	0.7	0.636	0.587	0.532	0.467	0.636	0.459	0.628	0.695	0.2
